From US20220401390A1, “TREATMENTS OF DIABETIC MACULAR EDEMA AND IMPAIRED VISUAL ACUITY” (KALVISTA PHARMACEUTICALS LIMITED, priority 2019, published 2022)
“Also recorded” adds a separate entry of the source.

Experiments:
Type in all cases: in vivo, human
[1] = tested on: subjects with center involved diabetic macular edema; test: Study 1: safety and tolerability of single ascending intravitreal doses
Excerpt: Study—an Open Label, Single Ascending Dose Study to Investigate the Safety and Tolerability of the Compound of Formula A Administered by Intravitreal Injection in Subjects with Center Involved Diabetic Macular Edema and Reduced Vision
The primary objective of the trial was to evaluate the local and systemic safety and tolerability of single ascending doses administered via intravitreal injection of the compound of Formula A in adult male and female subjects with central involved diabetic macular edema.
(§1) Following the signing of informed consent, subjects attended the clinic where screening assessments were recorded (Clinic Visit 1). When deemed eligible, subjects attended the clinic where baseline measurements were recorded (recorded as Day 0, Clinic Visit 2). Following confirmation of eligibility and the taking of baseline ophthalmic measurements, a single intravitreal injection of the compound of Formula A, was administered to the study eye as per Diabetic Retinopathy Clinical Research Network (DRCR.net) protocol.
(§2) Each subject returned on Day 1, 7, 14, 28 and 56 for safety and ophthalmic assessment. Pharmacokinetic assessment was also taken. In addition, the subject was contacted by the Study Site on Day 3 (+1-1 day) by telephone to inquire about the subject's visual wellbeing and to ask about any adverse events.
Once the highest safe and tolerated (or practical) dose had been established, the study proceeded to Part 2 in which 5 additional subjects were treated with the established highest safe and tolerated (or practical) dose according to the same protocol with the same procedures performed as described for subjects enrolled into Part 1.
(§3) Single 100 μL intravitreal injection of: • 1 μg-10 μg/mL of the compound of Formula A • 3 μg-30 μg/mL of the compound of Formula A • […] of the compound of Formula A
(§4) • Best Corrected Visual Acuity as measured by ETDRS EVA • Intraocular pressure • Color vision • Multifocal Electroretinogram (mfERG) • Humphrey Visual Field 24-2 (HVF 24-2) • Treatment-Emergent Adverse Events (TEAEs) • Changes on ophthalmic examination • Clinical laboratory test results • Vital signs • ECG findings

[2] = Study 1: plasma profile following intravitreal injection
Excerpt: (§5) The secondary objectives were: • To evaluate the plasma profile of the compound of Formula A following intravitreal injection in adult male and female subjects with central involved diabetic macular edema. • To evaluate the pharmacodynamic effect of intravitreal injection of the compound of Formula A in adult male and female subjects with central involved diabetic macular edema.
as §2, §3

[3] = tested on: subjects with center involved diabetic macular edema; test: Study 1: pharmacodynamic effect (visual acuity, retinal thickness); details: for Mean improvement in visual acuity compared with baseline: single injection
Method: as §5, §1, §2, §3, §4

[4] = tested on: subjects with ciDME who have had prior anti-VEGF treatment; test: Study 2: local and systemic safety and tolerability
Excerpt: To evaluate the local and systemic safety and tolerability of monthly dosing of the injections of the compound of Formula A in subjects with ciDME who had had prior anti-VEGF treatment.
This study was a randomized, sham-controlled, double-masked, 3-arm study into efficacy, safety and tolerability of monthly intravitreal injections of the compound of Formula A as a monotherapy in adult subjects with ciDME. The subjects had all had prior anti-VEGF treatment.
The 129 eligible subjects were randomized approximately 1:1:1 into three arms: • 1. Arm 1, N=44: • Received injections of 3 μg/eye (100 μL injection volume at a concentration of 30 μg/mL) of the compound of formula A; • 2. Arm 2, N=41: • Received injections of 6 μg/eye (100 μL injection volume at a concentration of 60 μg/mL) of the compound of formula A; and • 3. Arm 3, N=44: • Received a sham procedure; during a 12-week, double-masked treatment period (a total of 4 doses given at approximately monthly intervals).
Approximately twenty-four (24) hours after each study drug administration or sham procedure on Day 1 and Weeks 4, 8, and 12, subjects were contacted by telephone to evaluate any reported AEs and changes in concomitant medications. In the event of any reported ocular or systemic AEs that were considered by the Investigator to be a possible cause for concern, the subjects returned to the clinic for assessment as soon as possible. • 3. Follow up Phase:
Safety variables of interest in this study are: • AEs; • Ophthalmic and physical findings; • Laboratory test results (clinical chemistry, hematology, and urinalysis); • Vital signs (SBP, DBP, PR, and respiratory rate).

[5] = of the 14 subjects, single intravitreal injection, all dose groups
[6] = whole study population, no control group

CCOc1ccc(C[C@@H](NC(=O)c2ccccc2)C(=O)N[C@@H](Cc2ccccc2)C(=O)NCc2ccc(CN)cc2)cc1 [compound of Formula A, N—[(R)-1-[(S)-1-(4-Aminomethyl-benzylcarbamoyl)-2-phenyl-ethylcarbamoyl]-2-(4-ethoxy-phenyl)-ethyl]-benzamide]
Adverse events leading to withdrawal from the study ([1]; 14 subjects, all dose groups): nor did any event lead to withdrawal from the study
Deaths or other serious adverse events ([1]; 14 subjects, all dose groups): no deaths or other serious adverse events
Severe events ([1]; 14 subjects, all dose groups): 1 patient
Study drug-related events ([1]; 14 subjects, all dose groups): 2 patients
Subjects who reported at least one adverse event (%) [1, 5]: 71%
Subjects who reported at least one adverse event (number) [1, 5]: 10 subjects
Adverse systemic effect ([1]; review of adverse events, laboratory results, ECG and physical examinations): no evidence of any adverse effect associated with systemic exposure
Tolerability of intravitreal injection ([1]; single intravitreal injection, 1, 3 or 10 μg): well tolerated
Time post dosing up to which plasma concentrations were quantifiable ([2]; 3 μg/eye dose): up to 24 hours
Time post dosing up to which plasma concentrations were quantifiable ([2]; 10 μg/eye): up to 24 hours
Time post injection up to which plasma concentrations were quantifiable ([2]; intravitreal injection of 1 μg/eye): up to 4 hours
Mean improvement in visual acuity compared with baseline ([3]; Day 7, average across all dose groups): 0.7 letters
Mean improvement in visual acuity compared with baseline ([3]; Day 14, average across all dose groups): 1.0 letters
Mean improvement in visual acuity compared with baseline ([3]; Day 28, average across all dose groups): 1.9 letters
Mean improvement in visual acuity compared with baseline ([3]; Day 56, average across all dose groups): 2.8 letters
Mean improvement in visual acuity ([3]; Day 84, 1 μg dose): 3.3 letters
Mean improvement in visual acuity ([3]; Day 84, 3 μg dose): 2.0 letters
Mean improvement in visual acuity compared with baseline ([3]; Day 84, average across all dose groups): 4.1 letters
Mean retinal thickness post-injection (in words) [3, 6]: trends of improvement; also recorded: reduction
Mean visual acuity post-injection (in words) [3, 6]: trends of improvement; also recorded: small improvement
AEs that led to discontinuation ([4]; 6 μg arm): one retinal neovascularization
Severity of reported adverse events (AEs) ([4]; majority of reported AEs, all arms): mild
Subjects in whom the treatment was safe and well-tolerated ([4]; monthly intravitreal injections, 3 μg or 6 μg): > 99%
